16 compounds from the SangsterLogP compilation can be followed below.

The term logP denotes the decadic logarithm of the partition coefficient of the neutral form, usually between octanol and water. Low values mean lower lipophilicity, high ones higher lipophilicity. Consider `CC(C)CNC(=O)N1C(=O)N(C)CC1O` (stereo unspecified), for which the logP stood at 1.32.

The compound `CCCCCNC(=O)N1C(=O)N(C)CC1O` (stereo unspecified) yielded a logP of 1.75.

In turn, `CCCCNC(=O)N1C(=O)N(C)CC1O` (stereo unspecified) gave a logP of 1.38.

For `CCCCCCNC(=O)N1C(=O)N(C)CC1O` (stereo unspecified), the logP came out at 2.39.

`CN1CC(O)N(C(=O)NC2CCCCCC2)C1=O` (stereo unspecified) showed a logP of 2.29.

In turn, `CCCCCCCCNC(=O)N1C(=O)N(C)CC1O` (stereo unspecified) showed a logP of 3.46.

In turn, `CC1CCC(NC(=O)N2C(=O)N(C)CC2O)CC1` (stereo unspecified) displayed a lipophilicity (logP) of 2.41.

Turning to `CC1CCCCC1NC(=O)N1C(=O)N(C)CC1O` (stereo unspecified), the logP worked out at 2.2.

In the case of `CN1CC(O)N(C(=O)Nc2ccccc2)C1=O` (stereo unspecified), the lipophilicity (logP) was found to be 1.44.

For `CN1CC(O)N(C(=O)NC(C)(C)C)C1=O` (stereo unspecified), the logP was found to be 1.38.

Consider `CN1CC(O)N(C(=O)NC2CCCC2)C1=O` (stereo unspecified), for which the log partition coefficient (logP) was 1.47. This logP and that of the compound before are within 0.2 log units of each other.

Compound `CN1CC(O)N(C(=O)NCCCl)C1=O` (stereo unspecified) came in with a logP of 0.71.

As for `CN1CC(O)N(C(=O)NC2CCCCC2)C1=O` (stereo unspecified), the logP turned out to be 1.87.

For the compound `CCC(C)NC(=O)N1C(=O)N(C)CC1O` (stereo unspecified), the logP was 1.28.

Compound `CCCNC(=O)N1C(=O)N(C)CC1O` (stereo unspecified) returned a logP of 0.99.

Take `CC(C)NC(=O)N1C(=O)N(C)CC1O` (stereo unspecified): the logP amounted to 0.96.
